“Also recorded” adds a separate entry of the source. Ends that are not written are not given here.
Assays:
[1] = tested on: mouse ES cells; assay: MNTF induced differentiation in the presence of Shh inhibitor (GFP fluorescence of embryoid bodies); type: cell-based; details: inhibitor 5 μM, day 5; for effect of inhibitor on MNTF induced differentiation of ES cells: RA + MNTF 33mer at 10 μg/ul; for effect of inhibitor on the GFP fluorescence effect of Shh-Agonist: RA + Shh agonist
Experimental: The ES cells were differentiated as mentioned above and at day 0 they were treated with RA+Shh-Agonist; RA+Shh Agonist+Cyclopamine-KAAD (5 μM); RA+MNTF (33mer at 10 μg/ul); and RA+Cyclopamine-KAAD (5 μM)+MNTF (33mer at 10 μg/ul). The inhibitor was pretreated for an hour before the addition of the other components.
At day 5 of differentiation the embryoid bodies were checked for GFP fluoresence indicating the differentiation of the ES cells into a motor neuron phenotype.
Receptor kinase studies were used to measure the affinity of MNTF for the Insulin Receptor (IR). […] We then tested whether signals through either of these pathways are possible in generating motor neurons. […] Thus, MNTF is still capable of generating post-mitotic mature motor neurons.
FIG. 5 illustrates a comparison of the expression of GFP fluorescence under the control of the motor neuron specific HB9 promoter at day 5 of differentiation in response to control (A), RA (3); RA/Shh (C); cyclopamine-KAAD, RA/Shh (D); RA and MNTF 33mer (E); Cyclopamine-KAAD, RA and MNTF 33mer (F).

[2] = tested on: ES cells derived from an HB9-GFP-transgenic mouse; assay: Differentiation of ES cells into motor neurons (eGFP under HB9 promoter in embryoid bodies); type: cell-based; details: for expression of eGFP under the control of the HB9 promoter (green fluorescence of EBs) compared with RA and Shh agonist: EBs treated with RA (1 μM) and peptide; for differentiation of ES cells into motor neurons: in the presence of RA; for concentration at which elevated fluorescence was detectable (as low as) / concentration at which fluorescence appeared to be optimal: with RA; for concentration at which fluorescence appeared to be optimal: in this experiment
Experimental: ES cells were derived from an HB9-GFP-transgenic mouse and fluoresce green upon adoption of a motoneuron phenotype [Wichterle, H. et al. ([…]) Cell 110, 385-397, incorporated herein by reference]. The mouse ES cells were maintained in a proliferative and undifferentiated state in the presence of murine LIF (Chemicon). The ES cells were cultured on a feeder layer of primary mouse embryonic fibroblasts that were mitomycin treated.
Mouse ES cells were separated from the feeder layer of fibroblasts. This was done by trypsinizing and plating the cell mixture on cell culture flasks coated with 0.1% gelatin. The fibroblasts attached specifically on the gelatin leaving a pure population of floating ES cells. The floating ES cells were collected and resuspended in differentiating medium. This stage was called “d−1”. The ES cells formed embryoid bodies (EBs) and 24 hours later (“d0”) were exposed to RA (1 μM)+MNTF or RA (1 μM)+Shh agonist (1 μM). MNTF peptides (all six forms) were tested at a final concentration range of 0.1 μg/ml-150 μg/ml.
The differentiation assay was carried for six days from “d−1” stage.

[3] = tested on: IR/IGF1R [pYpY1162/1163]; assay: Autophosphorylation of Insulin/IGF receptor(s), western blot of embryoid bodies; type: cell-based, mouse; details: for autophosphorylation of IR/IGF-R (pTyr 1162/1163): RA (1 μM) + MNTF 33mer (10 μg/ml), FIG. 3
Experimental: Embryoid bodies (EBs) were exposed to RA (1 μM)+MNTF 33mer (10 μg/ml) or RA (1 μM)+MNTF 33mer (10 μg/ml)+/−HNMPA-(AM)3 (50 nM). Cells were harvested at 0, 15 min, 30 min, 1 h, 2 h and 4 h time points.
The cells were harvested as described previously [Barber, A. J. et al., (2001) J. Biol. Chem. 276, 32814-32821]. Protein concentrations were measured with the Pierce BCA reagent, and all samples were adjusted for equal protein before SDS-polyacrylamide gel electrophoresis.
Cell lysates were immunoblotted with polyclonal antibodies against phosphotyrosines 1162-1163 of IR/IGFR1 following the manufacturer's directions or standard techniques. Protein bands were detected by enhanced chemical fluorescence. Densitometric analysis of enhanced chemical fluorescence immunoblots was performed with ImageQuant (Molecular Dynamics, Sunnyvale, Calif.).

[4] = tested on: ES cell-derived motor neurons; assay: Survival of ES cell-derived motor neurons in dissociated cultures; type: cell-based, mouse; details: for maintaining dissociated cultures: dissociated ES-derived motor neuron cultures; for enhancement of survival of stem cell derived motor neurons: percentage survivability on day ten, FIG. 4
Experimental: Mouse embryonic stem (ES) cells were differentiated in the presence of RA and Hg-agonist (Curis, Inc.). On day four, the differentiated embryoid bodies were partially dissociated with 0.05% trypsin or Collagenase and Dispase (1 mg/ml in PBS) and plated on coverslips coated with PLL-Laminin and matrigel.
The dissociated cultures were then treated with GDNF (10 ng/ml), MNTF (all seven forms) at different doses (0.1 μg/ml, 1 μg/ml, 10 μg/ml and 50 μg/ml), and dbcAMP (1 μM), NT3 (10 μg/ml) at day five.
Neurons and their axons were identified by using the fluorescence produced by GFP expressed from the HB9 promoter. Neurite outgrowth can be quantified as described previously [Harper, J. M. et al. (2004) PNAS 101, 7123-7128, incorporated herein by reference] at day six, eight and ten. Percentage survivability was calculated on day ten by counting the total number of cells with existing axons.

[5] = tested on: mouse ES cells; assay: Differentiation of ES cells in the presence of IR or IGF1-R inhibitor (GFP fluorescence of day 5 embryoid bodies); type: cell-based; details: for effect of inhibitor on MNTF induced differentiation (GFP fluorescence): HNMPA(AM)3 15 μM or PPP 1 μM, RA/MNTF33 or RA/MNTF10, FIG. 6
[6] = tested on: motor neurons; details: in vivo, compared with MNTF1-F6 33-mer; cited from earlier work
[7] = tested on: motor neuron derived cell lines; details: compared with MNTF1-F6 33-mer; cited from earlier work
[8] = tested on: wobbler mice; details: MNTF1-containing gel sections implanted at C7-T3 region; cited from earlier work
[9] = tested on: anterior horn motor neurons; details: rat lumbar spinal cord explants; cited from earlier work
[10] = tested on: spinal cord hemi-section; details: rats, MNTF1-containing gel sections near nerve graft junctions; cited from earlier work
[11] = tested on: surviving motor neurons; details: axotomized rat peripheral nerves, versus untreated controls; cited from earlier work

3-keto-N-(aminoethyl-aminocaproyl-dihydrocinnamoyl)cyclopamine [Cyclopamine-KAAD]
effect of inhibitor on MNTF induced differentiation of ES cells [1]: did not block MNTF induced differentiation of ES cells
effect of inhibitor on MNTF induced differentiation of ES cells ([1]; listed as cyclopamine-KAAD): did not block the activity of MNTF induced differentiation
effect of inhibitor on the GFP fluorescence effect of Shh-Agonist [1]: blocked the GFP fluoresence effect of Shh-Agonist
effect of inhibitor on the GFP fluorescence effect of Shh-Agonist ([1]; listed as cyclopamine-KAAD): blocks the effect of Shh on mouse ES cells

33mer: 33 amino acid MNTF1-F6 sequence (SEQ ID NO:1), synthesized by solid phase synthesis (LGTFWGDTLNCWMLSAFSRYARCLAEGHDGPTQ)
expression of eGFP under the control of the HB9 promoter (green fluorescence of EBs) compared with RA and Shh agonist ([2]; FIG. 2): to the same extent or greater than EBs treated with RA and Shh agonist
differentiation of ES cells into motor neurons [2]: effectively substitute for Sonic Hedgehog
differentiation of ES cells into motor neurons ([2]; listed as 33-mer): induced differentiation of ES cells into motor neurons; also recorded: capable of inducing differentiation of ES cells into differentiated motor neurons
concentration at which elevated fluorescence was detectable (as low as) ([2]; FIG. 2): 0.1 µg/mL
concentration at which fluorescence appeared to be optimal [2]: about 10 μg/ml
autophosphorylation of IR/IGF-R (pTyr 1162/1163) [3]: autophosphorylation of IR/IGF-R
autophosphorylation of IR/IGF-R (pTyr 1162/1163) ([3]; listed as MNTF1 33-mer): associated with autophosphorylation of the insulin receptor (IR) and/or insulin-like growth factor receptor (IGF-R)
maintaining dissociated cultures [4]: effective at maintaining dissociated cultures up to 10 days

CC(=O)OCOC(c1ccc2ccccc2c1)P(=O)(OCOC(C)=O)OCOC(C)=O (stereo not drawn) [HNMPA-(AM)3, Hydroxy-2-naphthalenylmethylphosphonic acid trisacetoxymethyl ester]
effect of inhibitor on MNTF induced differentiation (GFP fluorescence) [5]: blocks the effect of MNTF on mouse ES cells
effect of inhibitor on Shh induced differentiation (GFP fluorescence) ([5]; HNMPA(AM)3 15 μM, FIG. 6): did not block the activity of Shh induced differentiation
effect of IR inhibitor on autophosphorylation of IR/IGF-R in MNTF 33mer treated cells ([3]; HNMPA-(AM)3 50 nM with RA + MNTF 33mer (10 μg/ml)): reduced autophosphorylation within 15 min

COc1cc([C@@H]2c3cc4c(cc3[C@H](O)[C@H]3COC(=O)[C@@H]23)OCO4)cc(OC)c1OC [picrodophyllin]
effect of inhibitor on MNTF induced differentiation (GFP fluorescence) [5]: does not effectively block the activity of MNTF induced differentiation

FSRYAR [6mer]
selective reinnervation of muscle targets by motor neurons [6]: sufficient to direct selective reinnervation of muscle targets
enhancement of survival of stem cell derived motor neurons [4]: sufficient to enhance survival of stem cell derived motor neurons
proliferation of motor neuron derived cell lines [7]: sufficient to stimulate the proliferation of motor neuron derived cell lines

FSRYARCLAEG (Synthetic MNTF peptide analog) [11mer]
enhancement of survival of stem cell derived motor neurons [4]: sufficient to enhance survival of stem cell derived motor neurons

MLSAFSRYAR (Synthetic MNTF peptide analog) [10mer]
expression of eGFP under the control of the HB9 promoter (green fluorescence of EBs) compared with RA and Shh agonist ([2]; FIG. 2): to the same extent or greater than EBs treated with RA and Shh agonist
differentiation of ES cells into motor neurons [2]: effectively substitute for Sonic Hedgehog
differentiation of ES cells into motor neurons ([2]; listed as MNTF 10-mer): capable of inducing differentiation of ES cells into differentiated motor neurons
concentration at which differentiation is stimulated (as low as) ([2]; in vitro, FIG. 2): 0.01 µg/mL
effectiveness at stimulating differentiation of embryonic stem cells into motor neurons compared with MNTF 33mer ([2]; in vitro, FIG. 2): at least as effective the full-length MNTF 33mer
concentration at which elevated fluorescence was detectable (as low as) ([2]; FIG. 2): 0.1 µg/mL
concentration at which fluorescence appeared to be optimal [2]: about 10 μg/ml
maintaining dissociated cultures [4]: effective at maintaining dissociated cultures up to 10 days
enhancement of survival of stem cell derived motor neurons [4]: nearly as effective as the MNTF 33mer

MLSAFSRYARCLAEGHDGPTQ (CWMLSAFSRYARC; Synthetic MNTF peptide sequence) [21mer]
enhancement of survival of stem cell derived motor neurons [4]: sufficient to enhance survival of stem cell derived motor neurons

MNTF1: naturally occurring and recombinant motoneuronotrophic factor 1 polypeptides; in b137 the word stands for the synthetic 33-mer (LGTFWGDTLNCWMLSAFSRYARCLAEGHDGPTQ)
progression of symptoms [8]: delayed the progression of symptoms in wobbler mice
survival in vitro of anterior horn motor neurons [9]: selectively enhance the survival
surviving motor neurons and functional recovery [10]: greater numbers of surviving motor neurons, improved recovery of motor and sensory function
percentage of surviving motor neurons [11]: markedly higher percentage of surviving motor neurons than untreated controls

WMLSAFS [7mer]
enhancement of survival of stem cell derived motor neurons [4]: sufficient to enhance survival of stem cell derived motor neurons
proliferation of motor neuron derived cell lines [7]: sufficient to stimulate the proliferation of motor neuron derived cell lines

From patent US8986676B2, “MNTF differentiation and growth of stem cells” (Genervon Biopharmaceuticals LLC, priority 2005, dated 2015)
